Assay results taken from paper PMC6979384, “Characterization of the plant homeodomain (PHD) reader family for their histone tail interactions” (Epigenetics & Chromatin, 2020).

How the values were obtained:
Assay in all cases: Histone peptide microarray
Type in all cases: binding, human
Details in all cases: sheet "Array Heatmap"
KDM5A (1) = tested on: KDM5A (1)
Summary of the method: (§1)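 A peptide microarray holding 293 synthetic histone peptides with individual or combinatorial modifications was probed with each GST-PHD protein at 0.5 μM. Values represent mean intensity (±SD) from four replicates.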

ING1 = tested on: ING1
Summary of the method: as §1

PHF13 = tested on: PHF13
Summary of the method: as §1

KDM4C (TTP) = tested on: KDM4C (TTP)
Summary of the method: as §1

CHD4 (PPCC) = tested on: CHD4 (PPCC)
Summary of the method: as §1

AIRE (PP) = tested on: AIRE (PP)
Summary of the method: as §1

RAG2 = tested on: RAG2
Summary of the method: as §1

DPF2 (PPC2W2) = tested on: DPF2 (PPC2W2)
Summary of the method: as §1

PHRF1 (RP) = tested on: PHRF1 (RP)
Summary of the method: as §1

KDM5B (1) = tested on: KDM5B (1)
Summary of the method: as §1

CHD5 (PPCC) = tested on: CHD5 (PPCC)
Summary of the method: as §1

PHF8 = tested on: PHF8
Summary of the method: as §1

SP140L = tested on: SP140L
Summary of the method: as §1

BPTF (PB) = tested on: BPTF (PB)
Summary of the method: as §1

MLL5 = tested on: MLL5
Summary of the method: as §1

KDM5B (3) = tested on: KDM5B (3)
Summary of the method: as §1

CHD5 (PCC) = tested on: CHD5 (PCC)
Summary of the method: as §1

TRIM66 (PB) = tested on: TRIM66 (PB)
Summary of the method: as §1

TAF3 = tested on: TAF3
Summary of the method: as §1

ING2 = tested on: ING2
Summary of the method: as §1

PHF2 = tested on: PHF2
Summary of the method: as §1

ING4 = tested on: ING4
Summary of the method: as §1

DIDO1 = tested on: DIDO1
Summary of the method: as §1

PHF21A = tested on: PHF21A
Summary of the method: as §1

PHF23 = tested on: PHF23
Summary of the method: as §1

BAZ2B = tested on: BAZ2B
Summary of the method: as §1

ING5 = tested on: ING5
Summary of the method: as §1

MORC3 (CW) = tested on: MORC3 (CW)
Summary of the method: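 GST-PHD reader, 0.5 μM, probed on 293-peptide histone array (single/combinatorial PTMs); optimized array protocol; signal = mean ± SD, n = 4.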

ING3 = tested on: ING3
Summary of the method: as §1

KDM5A (3) = tested on: KDM5A (3)
Summary of the method: as §1

KDM7A = tested on: KDM7A
Summary of the method: as §1

[1] = GST-tagged reader, histone peptide array, total n = 4

For H3K9me2 + K27me1 (1-32): H3 1-20, the “Array Heatmap signal, KDM5A (1)” value (KDM5A (1); GST-tagged KDM5A (1), arrays performed twice, total replicate number n = 4) was 0.4383, the “Array Heatmap signal, ING1” value (ING1; GST-tagged ING1, arrays performed twice, total replicate number n = 4) was 0.5289 and the “Array Heatmap signal, PHF13” value (PHF13; GST-tagged PHF13, arrays performed twice, total replicate number n = 4) was 0.5951. The “Array Heatmap signal, KDM4C (TTP)” value (KDM4C (TTP); GST-tagged KDM4C (TTP), arrays performed twice, total replicate number n = 4) was 0.4309, the “Array Heatmap signal, CHD4 (PPCC)” value (CHD4 (PPCC); GST-tagged CHD4 (PPCC), arrays performed twice, total replicate number n = 4) was 0.5346 and the “Array Heatmap signal, AIRE (PP)” value (AIRE (PP); GST-tagged AIRE (PP), arrays performed twice, total replicate number n = 4) was 0.4239. For the same substance, the “Array Heatmap signal, RAG2” value (RAG2; GST-tagged RAG2, arrays performed twice, total replicate number n = 4) was 0.2412, the “Array Heatmap signal, DPF2 (PPC2W2)” value (DPF2 (PPC2W2); GST-tagged DPF2 (PPC2W2), arrays performed twice, total replicate number n = 4) was 0.7331 and the “Array Heatmap signal, PHRF1 (RP)” value (PHRF1 (RP); GST-tagged PHRF1 (RP), arrays performed twice, total replicate number n = 4) was 0.767. The “Array Heatmap signal, KDM5B (1)” value (KDM5B (1); GST-tagged KDM5B (1), arrays performed twice, total replicate number n = 4) was 0.6244, the “Array Heatmap signal, CHD5 (PPCC)” value (CHD5 (PPCC); GST-tagged CHD5 (PPCC), arrays performed twice, total replicate number n = 4) was 0.5173 and the “Array Heatmap signal, PHF8” value (PHF8; GST-tagged PHF8, arrays performed twice, total replicate number n = 4) was 0.3466. The “Array Heatmap signal, SP140L” value (SP140L; GST-tagged SP140L, arrays performed twice, total replicate number n = 4) was 0.3321, the “Array Heatmap signal, BPTF (PB)” value (BPTF (PB); GST-tagged BPTF (PB), arrays performed twice, total replicate number n = 4) was 0.3305 and the “Array Heatmap signal, MLL5” value (MLL5; GST-tagged MLL5, arrays performed twice, total replicate number n = 4) was 0.5528. The “Array Heatmap signal, KDM5B (3)” value (KDM5B (3); GST-tagged KDM5B (3), arrays performed twice, total replicate number n = 4) was 0.4925, the “Array Heatmap signal, CHD5 (PCC)” value (CHD5 (PCC); GST-tagged CHD5 (PCC), arrays performed twice, total replicate number n = 4) was 0.7436 and the “Array Heatmap signal, TRIM66 (PB)” value (TRIM66 (PB); GST-tagged TRIM66 (PB), arrays performed twice, total replicate number n = 4) was 0.6366. The “Array Heatmap signal, TAF3” value (TAF3; GST-tagged TAF3, arrays performed twice, total replicate number n = 4) was 0.256, the “Array Heatmap signal, ING2” value (ING2; GST-tagged ING2, arrays performed twice, total replicate number n = 4) was 0.6071 and the “Array Heatmap signal, PHF2” value (PHF2; GST-tagged PHF2, arrays performed twice, total replicate number n = 4) was 0.587. For the same substance, the “Array Heatmap signal, ING4” value (ING4; GST-tagged ING4, arrays performed twice, total replicate number n = 4) was 0.4312, the “Array Heatmap signal, DIDO1” value (DIDO1; GST-tagged DIDO1, arrays performed twice, total replicate number n = 4) was 0.7123 and the “Array Heatmap signal, PHF21A” value (PHF21A; GST-tagged PHF21A, arrays performed twice, total replicate number n = 4) was 0.4343. For the same substance, the “Array Heatmap signal, PHF23” value (PHF23; GST-tagged PHF23, arrays performed twice, total replicate number n = 4) was 0.5468, the “Array Heatmap signal, BAZ2B” value (BAZ2B; GST-tagged BAZ2B, arrays performed twice, total replicate number n = 4) was 0.4338 and the “Array Heatmap signal, ING5” value (ING5; GST-tagged ING5, arrays performed twice, total replicate number n = 4) was 0.3315. For the same substance, the “Array Heatmap signal, MORC3 (CW)” value (MORC3 (CW); GST-tagged MORC3 (CW), arrays performed twice, total replicate number n = 4) was 0.4746, the “Array Heatmap signal, ING3” value (ING3; GST-tagged ING3, arrays performed twice, total replicate number n = 4) was 0.4513 and the “Array Heatmap signal, KDM5A (3)” value (KDM5A (3); GST-tagged KDM5A (3), arrays performed twice, total replicate number n = 4) was 0.5076. The “Array Heatmap signal, KDM7A” value (KDM7A; GST-tagged KDM7A, arrays performed twice, total replicate number n = 4) was 0.3071.
H3K9me2 + K27me2: H3 6-30 was tested, and the “Array Heatmap signal, KDM5A (1)” value (KDM5A (1); [1]) was 0.5009, the “Array Heatmap signal, ING1” value (ING1; [1]) was 0.5223 and the “Array Heatmap signal, PHF13” value (PHF13; [1]) was 0.655. For the same substance, the “Array Heatmap signal, KDM4C (TTP)” value (KDM4C (TTP); [1]) was 0.5461, the “Array Heatmap signal, CHD4 (PPCC)” value (CHD4 (PPCC); [1]) was 0.615 and the “Array Heatmap signal, AIRE (PP)” value (AIRE (PP); [1]) was 0.5158. The “Array Heatmap signal, RAG2” value (RAG2; [1]) was 0.2639, the “Array Heatmap signal, DPF2 (PPC2W2)” value (DPF2 (PPC2W2); [1]) was 0.6273 and the “Array Heatmap signal, PHRF1 (RP)” value (PHRF1 (RP); [1]) was 0.4454. For the same substance, the “Array Heatmap signal, KDM5B (1)” value (KDM5B (1); [1]) was 0.6708, the “Array Heatmap signal, CHD5 (PPCC)” value (CHD5 (PPCC); [1]) was 0.6064 and the “Array Heatmap signal, PHF8” value (PHF8; [1]) was 0.3721. The “Array Heatmap signal, SP140L” value (SP140L; [1]) was 0.3642, the “Array Heatmap signal, BPTF (PB)” value (BPTF (PB); [1]) was 0.3713 and the “Array Heatmap signal, MLL5” value (MLL5; [1]) was 0.5274. For the same substance, the “Array Heatmap signal, KDM5B (3)” value (KDM5B (3); [1]) was 0.4954, the “Array Heatmap signal, CHD5 (PCC)” value (CHD5 (PCC); [1]) was 0.8305 and the “Array Heatmap signal, TRIM66 (PB)” value (TRIM66 (PB); [1]) was 0.6036. The “Array Heatmap signal, TAF3” value (TAF3; [1]) was 0.2757, the “Array Heatmap signal, ING2” value (ING2; [1]) was 0.6067 and the “Array Heatmap signal, PHF2” value (PHF2; [1]) was 0.4856. The “Array Heatmap signal, ING4” value (ING4; [1]) was 0.4936, the “Array Heatmap signal, DIDO1” value (DIDO1; [1]) was 0.6649 and the “Array Heatmap signal, PHF21A” value (PHF21A; [1]) was 0.4962. For the same substance, the “Array Heatmap signal, PHF23” value (PHF23; [1]) was 0.5491, the “Array Heatmap signal, BAZ2B” value (BAZ2B; [1]) was 0.4949 and the “Array Heatmap signal, ING5” value (ING5; [1]) was 0.3864. The “Array Heatmap signal, MORC3 (CW)” value (MORC3 (CW); [1]) was 0.385, the “Array Heatmap signal, ING3” value (ING3; [1]) was 0.521 and the “Array Heatmap signal, KDM5A (3)” value (KDM5A (3); [1]) was 0.4645. For the same substance, the “Array Heatmap signal, KDM7A” value (KDM7A; [1]) was 0.3867.
For H3K9pro: H3 1-20 [Peptide H3K9pro], the “Array Heatmap value (peptide array signal)” value (“Array Heatmap value” below) (KDM5A (1); KDM5A (1), each array performed twice, total n = 4) was 0.4409, the “Array Heatmap value” value (ING1; ING1, each array performed twice, total n = 4) was 0.5254 and the “Array Heatmap value” value (PHF13; PHF13, each array performed twice, total n = 4) was 0.5854. The “Array Heatmap value” value (KDM4C (TTP); KDM4C (TTP), each array performed twice, total n = 4) was 0.4589, the “Array Heatmap value” value (CHD4 (PPCC); CHD4 (PPCC), each array performed twice, total n = 4) was 0.5901 and the “Array Heatmap value” value (AIRE (PP); AIRE (PP), each array performed twice, total n = 4) was 0.411. For the same substance, the “Array Heatmap value” value (RAG2; RAG2, each array performed twice, total n = 4) was 0.2419, the “Array Heatmap value” value (DPF2 (PPC2W2); DPF2 (PPC2W2), each array performed twice, total n = 4) was 0.7007 and the “Array Heatmap value” value (PHRF1 (RP); PHRF1 (RP), each array performed twice, total n = 4) was 0.5869. For the same substance, the “Array Heatmap value” value (KDM5B (1); KDM5B (1), each array performed twice, total n = 4) was 0.6726, the “Array Heatmap value” value (CHD5 (PPCC); CHD5 (PPCC), each array performed twice, total n = 4) was 0.5229 and the “Array Heatmap value” value (PHF8; PHF8, each array performed twice, total n = 4) was 0.3451. For the same substance, the “Array Heatmap value” value (SP140L; SP140L, each array performed twice, total n = 4) was 0.3673, the “Array Heatmap value” value (BPTF (PB); BPTF (PB), each array performed twice, total n = 4) was 0.3368 and the “Array Heatmap value” value (MLL5; MLL5, each array performed twice, total n = 4) was 0.5292. For the same substance, the “Array Heatmap value” value (KDM5B (3); KDM5B (3), each array performed twice, total n = 4) was 0.4382, the “Array Heatmap value” value (CHD5 (PCC); CHD5 (PCC), each array performed twice, total n = 4) was 0.7611 and the “Array Heatmap value” value (TRIM66 (PB); TRIM66 (PB), each array performed twice, total n = 4) was 0.5807. The “Array Heatmap value” value (TAF3; TAF3, each array performed twice, total n = 4) was 0.2557, the “Array Heatmap value” value (ING2; ING2, each array performed twice, total n = 4) was 0.6039 and the “Array Heatmap value” value (PHF2; PHF2, each array performed twice, total n = 4) was 0.4692. The “Array Heatmap value” value (ING4; ING4, each array performed twice, total n = 4) was 0.4451, the “Array Heatmap value” value (DIDO1; DIDO1, each array performed twice, total n = 4) was 0.6439 and the “Array Heatmap value” value (PHF21A; PHF21A, each array performed twice, total n = 4) was 0.4435. For the same substance, the “Array Heatmap value” value (PHF23; PHF23, each array performed twice, total n = 4) was 0.5285, the “Array Heatmap value” value (BAZ2B; BAZ2B, each array performed twice, total n = 4) was 0.4231 and the “Array Heatmap value” value (ING5; ING5, each array performed twice, total n = 4) was 0.3309. The “Array Heatmap value” value (MORC3 (CW); MORC3 (CW), each array performed twice, total n = 4) was 0.4445, the “Array Heatmap value” value (ING3; ING3, each array performed twice, total n = 4) was 0.4734 and the “Array Heatmap value” value (KDM5A (3); KDM5A (3), each array performed twice, total n = 4) was 0.4398. The “Array Heatmap value” value (KDM7A; KDM7A, each array performed twice, total n = 4) was 0.3118.
